Data: patent publication US20090111836A1, “Angular Pyranocoumarins, Process for Preparation and Uses Thereof” (CITY UNIVERSITY OF HONG KONG, priority 2007, published 2009)
Like-named read-outs stand apart in the source and are kept apart here.

Key:
HepG2 cells [1] = test: SRB growth inhibition assay, HepG2; assay type: cell-based; conditions: Homo sapiens, read-out: IC50 (cytotoxicity)
Description: (§1) K562, K562-DR, HepG2, HepG2-DR were cultured in RPMI-1640 medium containing 10% fetal bovine serum and 100 U/mL, antibiotics. […] Drug test: […] New calorimetric cytotoxicity assay for anticancer-drug screening. […] Mosmann T. Rapid colorimetric assay for cellular growth and survival: application to proliferation and cytotoxicity assays. […] Gerlier D, Thomasset N. […] Each growth inhibition experiment must be repeated three times and results are expressed as mean±standard deviation (SD). Solvents and media were included as blank control. In SRB assay, cells are inoculated at 5000 cells/well in a 96-well microplate and incubated overnight to let cells adhere. Drug treatment lasts for 72 hours and cells are fixed for 1 hour at 4° C. with 50 μl ice-cold 15% trichloroacetic acid and washed with triple-distilled water 5 times. […] The protein-bound dye is dissolved in 100 μl per well of 10 mM Tris base (pH 10.5). The color intensity of SRB, which positively correlate to cell number in preliminary experiments, is estimated at OD 515 nm.

HepG2-DR cells [2] = test: SRB growth inhibition assay, HepG2-DR; assay type: cell-based, human; conditions: for IC50: Homo sapiens, 72 h, read-out: IC50 (cytotoxicity); for Resistant ratio: IC50 HepG2-DR / IC50 HepG2
Description: as §1

K562-DR cells = test: MTT growth inhibition assay, K562-DR; assay type: cell-based, human; conditions: for IC50: Homo sapiens, read-out: IC50 (cytotoxicity); for Resistant ratio: IC50 K562-DR / IC50 K562
Description: (§2) K562, K562-DR, HepG2, HepG2-DR were cultured in RPMI-1640 medium containing 10% fetal bovine serum and 100 U/mL, antibiotics. […] Drug test: […] New calorimetric cytotoxicity assay for anticancer-drug screening. […] Mosmann T. Rapid colorimetric assay for cellular growth and survival: application to proliferation and cytotoxicity assays. […] Gerlier D, Thomasset N. […] Each growth inhibition experiment must be repeated three times and results are expressed as mean±standard deviation (SD). Solvents and media were included as blank control. In MTT assay, cells are inoculated at 5000 cells/well and are incubated overnight. Drug treatment lasts for 68 h. MTT (5 mg/ml in PBS) is added to each well (1:10 dilution). […] Viable cell number is estimated by correlating to OD at 570 nm.

KB-3-1 cells = test: SRB growth inhibition assay, KB-3-1; assay type: cell-based; conditions: Homo sapiens, read-out: IC50 (cytotoxicity)
KB V1 cells = test: SRB growth inhibition assay, KB V1; assay type: cell-based, human; conditions: for IC50: Homo sapiens, read-out: IC50 (cytotoxicity); for Resistant ratio: IC50 KB V1 / IC50 KB-3-1
K562 cells = test: MTT growth inhibition assay, K562; assay type: cell-based; conditions: Homo sapiens
Description: as §2

Pgp-MDR cells = conditions: Wu et al., Eur J Pharmacol 2003; cited from earlier work
HepG2-DR cells [3] = test: Cell cycle distribution by flow cytometry (doxorubicin-induced G2/M arrest), HepG2-DR; assay type: cell-based, human; conditions: for Cell cycle distribution, G0/G1 / Cell cycle distribution, G2/M / Cell cycle distribution, S / Cell cycle distribution, SubG1: HepG2-DR, 48 h
Description: (§3) 1.2 Instruments: FACSCAN flow cytometry (Becton Dickinson Immunocytometry Systems, San Jose, Calif.), the obtained data were analyzed using the software of Macintosh CellQuest.
(§4) 1.3 Cell lines: HepG2, HepG2-DR.
(§5) 1.4 Drug treatment: HepG2 and HepG2-DR cells were respectively treated with each of cis-DMDCK, cis-DMDBK, trans-DMDCK, trans-DMDBK and doxorubicin for 48 hours, or treated respectively with the combination of doxorubicin and one of cis-DMDCK, cis-DMDBK, trans-DMDCK, trans-DMDBK for 48 hours.
(§6) 1.5 Treatment and detection of sample cells: after washed twice by ice-cold PBS, the cells were fixed with 70% ethanol at −20° C. overnight. The fixed cells were washed by PBS once and resuspended in 1 mL of PBS containing 100 μg/mL RNAase A and incubated at 37° C. for 30 minutes. Finally, propidium iodide solution (final concentration is 40 μg/mL,) was added to bind with DNA and incubated at room temperature for 5-10 minutes. Cells were analyzed by FACSCAN flow cytometry immediately.

HepG2 cells [4] = test: Cell cycle distribution by flow cytometry, HepG2; assay type: cell-based, human
Description: as §3, §4, §5, §6

[5] = K562, MTT, (×10^−3), read-out: IC50 (cytotoxicity)

COc1ccc(C[C@H](N)C(=O)N[C@H]2[C@@H](O)[C@H](n3cnc4c(N(C)C)ncnc43)O[C@@H]2CO)cc1 [Puromycin]
IC50 (HepG2 cells [1]; HepG2, 72 h): 170 ± 70 nM | IC50 (HepG2-DR cells [2]): 104000 ± 2480 nM | Resistant ratio (HepG2-DR cells [2]): 597 | IC50 (K562-DR cells): 47700 ± 9000 nM | Resistant ratio (K562-DR cells): 122 | IC50 (KB-3-1 cells; KB 3-1, 72 h): 210 ± 50 nM | IC50 (KB V1 cells; KB-V1, 72 h): 79300 ± 8810 nM | Resistant ratio (KB V1 cells): 378 | IC50 (K562 cells; K562, read-out: IC50 (cytotoxicity)): 390 ± 160 nM

CC[C@]1(O)C[C@@H]2CN(CCc3c([nH]c4ccccc34)[C@@](C(=O)OC)(c3cc4c(cc3OC)N(C)[C@H]3[C@@](O)(C(=O)OC)[C@H](OC(C)=O)[C@]5(CC)C=CCN6CC[C@]43[C@@H]65)C2)C1 [Vinblastine]
IC50 (HepG2 cells [1]; HepG2, SRB, 72 h, (×10^−3)): 0.1 ± 0.01 nM | IC50 (HepG2-DR cells [2]; HepG2-DR, SRB): 310 ± 60 nM | Resistant ratio (HepG2-DR cells [2]): 3100 | IC50 (K562-DR cells; K562-DR, MTT): 200 ± 70 nM | Resistant ratio (K562-DR cells): 227 | IC50 (KB-3-1 cells; KB-3-1, SRB, 72 h, (×10^−3)): 0.11 ± 0.01 nM | IC50 (KB V1 cells; KB V1, SRB, 72 h): 1040 ± 340 nM | Resistant ratio (KB V1 cells): 9271 | IC50 (K562 cells; [5]): 0.88 ± 0.25 nM

(±)-Praeruptorin A
Enhancement of drug sensitivity of Pgp-MDR cells (Pgp-MDR cells): only moderate

COc1cccc2c1C(=O)c1c(O)c3c(c(O)c1C2=O)C[C@@](O)(C(=O)CO)C[C@@H]3O[C@H]1C[C@H](N)[C@H](O)[C@H](C)O1 [Doxorubicin, reference compound]
IC50 (HepG2 cells [1]; HepG2, SRB, 72 h): 170 ± 100 nM | IC50 (HepG2-DR cells [2]; HepG2-DR, SRB): 37300 ± 2420 nM | Resistant ratio (HepG2-DR cells [2]): 219 | Cell cycle distribution, G0/G1 (HepG2-DR cells [3]; 1 μM alone): 51.33 ± 0.92% | Cell cycle distribution, G2/M (HepG2-DR cells [3]; 1 μM alone): 33.47 ± 0.17% | Cell cycle distribution, S (HepG2-DR cells [3]; 1 μM alone): 7.74 ± 3.57% | Cell cycle distribution, SubG1 (HepG2-DR cells [3]; 1 μM alone): 2.37 ± 0.34% | Cell cycle distribution, G0/G1 (HepG2-DR cells [3]; 10 μM alone): 24.81 ± 0.23% | Cell cycle distribution, G2/M (HepG2-DR cells [3]; 10 μM alone): 60.80 ± 0.79% | Cell cycle distribution, S (HepG2-DR cells [3]; 10 μM alone): 6.86 ± 1.80% | Cell cycle distribution, SubG1 (HepG2-DR cells [3]; 10 μM alone): 3.37 ± 0.17% | Cell cycle distribution, G0/G1 (HepG2-DR cells [3]; 50 μM alone): 12.05 ± 5.08% | Cell cycle distribution, G2/M (HepG2-DR cells [3]; 50 μM alone): 73.43 ± 9.00% | Cell cycle distribution, S (HepG2-DR cells [3]; 50 μM alone): 5.58 ± 1.34% | Cell cycle distribution, SubG1 (HepG2-DR cells [3]; 50 μM alone): 4.88 ± 0.75% | Concentration required for almost a complete G2/M arrest (HepG2-DR cells [3]; P-glycoprotein-overexpressing HepG2-DR cells): over 50 μM | IC50 (K562-DR cells; K562-DR, MTT): 31000 ± 17100 nM | Resistant ratio (K562-DR cells): 129 | IC50 (KB-3-1 cells; KB-3-1, SRB, 72 h): 180 ± 40 nM | IC50 (KB V1 cells; KB V1, SRB, 72 h): 32000 ± 2740 nM | Resistant ratio (KB V1 cells): 178 | Cell cycle distribution, G0/G1 (HepG2 cells [4]; HepG2, 0.2 μM alone, 48 h): 4.92 ± 0.91% | Cell cycle distribution, G2/M (HepG2 cells [4]; HepG2, 0.2 μM alone, 48 h): 76.57 ± 1.32% | Cell cycle distribution, S (HepG2 cells [4]; HepG2, 0.2 μM alone, 48 h): 8.89 ± 0.83% | Cell cycle distribution, SubG1 (HepG2 cells [4]; HepG2, 0.2 μM alone, 48 h): 0.92 ± 0.45% | Concentration achieving almost a complete G2/M arrest (HepG2 cells [4]; drug sensitive HepG2 cells): 0.2 µM | IC50 (K562 cells; K562, MTT, read-out: IC50 (cytotoxicity)): 240 ± 80 nM

CC(=O)O[C@H]1C(=O)[C@@]2(C)[C@H]([C@H](OC(=O)c3ccccc3)[C@]3(O)C[C@H](OC(=O)[C@H](O)[C@@H](NC(=O)c4ccccc4)c4ccccc4)C(C)=C1C3(C)C)[C@]1(OC(C)=O)CO[C@@H]1C[C@@H]2O [Paclitaxel]
IC50 (HepG2 cells [1]; HepG2, SRB, 72 h, (×10^−3)): 6.07 ± 2.61 nM | IC50 (HepG2-DR cells [2]; HepG2-DR, SRB): 4230 ± 60 nM | Resistant ratio (HepG2-DR cells [2]): 696 | IC50 (K562-DR cells; K562-DR, MTT): 3250 ± 450 nM | Resistant ratio (K562-DR cells): 5417 | IC50 (KB-3-1 cells; KB-3-1, SRB, 72 h): 2 ± 1 nM | IC50 (KB V1 cells; KB V1, SRB, 72 h): 8000 ± 1480 nM | Resistant ratio (KB V1 cells): 4000 | IC50 (K562 cells; [5]): 0.6 ± 0.23 nM
